{"source": "patent US10513523B2", "about": "“Imidazopyrazines and pyrazolopyrimidines and their use as AMPA receptor modulators” (Janssen Pharmaceutica NV, priority 2015, dated 2019)", "data": [{"target": "GluA1o-γ8 (GRIA1o-CACNG8 fusion construct; TARP γ8 dependent AMPA receptor) (Homo sapiens (Human), UniProt P42261+Q8WXS5)", "sequence (P42261 other isoform, or with tags, fused parts or gaps)": "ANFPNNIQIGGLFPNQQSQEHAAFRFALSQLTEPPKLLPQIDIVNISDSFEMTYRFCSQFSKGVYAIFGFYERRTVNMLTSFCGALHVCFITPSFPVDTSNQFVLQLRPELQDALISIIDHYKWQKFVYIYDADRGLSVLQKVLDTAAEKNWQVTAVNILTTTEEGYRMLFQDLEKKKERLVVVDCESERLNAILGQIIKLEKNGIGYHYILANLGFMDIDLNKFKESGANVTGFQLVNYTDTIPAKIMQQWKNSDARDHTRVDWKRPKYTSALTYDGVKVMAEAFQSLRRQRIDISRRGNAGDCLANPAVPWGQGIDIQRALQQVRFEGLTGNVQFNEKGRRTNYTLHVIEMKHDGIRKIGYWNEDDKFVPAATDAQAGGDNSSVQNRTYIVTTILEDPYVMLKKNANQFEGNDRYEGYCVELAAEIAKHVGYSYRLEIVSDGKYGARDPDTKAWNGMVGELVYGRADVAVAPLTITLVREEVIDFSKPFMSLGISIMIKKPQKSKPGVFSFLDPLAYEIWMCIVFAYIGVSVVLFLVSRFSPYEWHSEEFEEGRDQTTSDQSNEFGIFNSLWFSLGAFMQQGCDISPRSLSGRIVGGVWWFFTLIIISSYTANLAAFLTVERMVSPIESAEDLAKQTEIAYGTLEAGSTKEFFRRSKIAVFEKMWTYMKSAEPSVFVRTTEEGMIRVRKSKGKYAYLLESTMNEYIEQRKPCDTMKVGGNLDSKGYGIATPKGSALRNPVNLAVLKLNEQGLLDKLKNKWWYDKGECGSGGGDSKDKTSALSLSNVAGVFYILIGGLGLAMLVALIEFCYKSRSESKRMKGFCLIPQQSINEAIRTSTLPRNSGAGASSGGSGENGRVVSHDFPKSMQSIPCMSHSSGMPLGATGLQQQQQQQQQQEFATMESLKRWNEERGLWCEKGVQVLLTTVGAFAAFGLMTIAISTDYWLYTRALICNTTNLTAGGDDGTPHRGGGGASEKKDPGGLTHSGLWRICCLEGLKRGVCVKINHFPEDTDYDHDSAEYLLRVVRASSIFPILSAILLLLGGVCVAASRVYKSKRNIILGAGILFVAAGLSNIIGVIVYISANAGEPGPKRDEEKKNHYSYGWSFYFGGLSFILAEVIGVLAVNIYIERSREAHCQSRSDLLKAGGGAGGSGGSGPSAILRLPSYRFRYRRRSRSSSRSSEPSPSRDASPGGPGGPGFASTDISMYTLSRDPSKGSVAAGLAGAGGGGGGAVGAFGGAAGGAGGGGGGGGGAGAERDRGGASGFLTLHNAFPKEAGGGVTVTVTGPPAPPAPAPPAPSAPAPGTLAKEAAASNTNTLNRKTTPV", "assay": "Calcium flux assay (FLIPR), inhibition of glutamate response of GluA1o-γ8 channel", "assay_type": "cell-based", "details": "HEK293 cells stably expressing GRIA1o-CACNG8 fusion; 15 μM glutamate; pIC50 = negative log of IC50 in molar; read-out: GluR1-γ8 (pIC50) (converted)", "source_text": "This assay was used to test compounds for their ability to inhibit TARP γ8 dependent AMPA receptor activity. The AMPA receptor is a non-selective cation channel activated by glutamate. Ionotropic glutamate receptors normally desensitize too rapidly to allow detectable calcium influx in a FLIPR assay (Strange et al. (2006). “Functional characterisation of homomeric ionotropic glutamate receptors GluR1-GluR6 in a fluorescence-based high throughput screening assay.” Comb Chem High Throughput Screen 9(2): 147-158). But, this desensitization is incomplete, and a substantial steady-state current remains in the sustained presence of glutamate (Cho et al. (2007). “Two families of TARP isoforms that have distinct effects on the kinetic properties of AMPA receptors and synaptic currents.” Neuron 55(6): 890-904).\nAn in vitro assay was used to determine the potency of test compounds as inhibitors of the glutamate response of the channel formed by GluA1o-γ8. To ensure a 1:1 stoichiometry of GluA10 and γ8 subunits in the expressed channel, a fusion of the cDNAs for GRIA1o and CACNG8 was used. Following Shi et al (2009) “The stoichiometry of AMPA receptors and TARPs varies by neuronal cell type.” Neuron 62(5): […]), the C-terminus of the cDNA for GRI1o was fused to the N-terminus of the cDNA for γ8. The linker sequence was […]. […] A clonal cell line in HEK293 cells stably expressing this construct, with a geneticin selection marker, was generated for use in this assay. Cell expressing the GRIA1o-CACNG8 fusion construct were grown in a monolayer in 96- or 384-well microtiter plates. They were washed with assay buffer (135 mM NaCl, 4 mM KCl, 3 mM CaCl2, 1 mM MgCl2, 5 mM glucose, 10 mM HEPES, pH 7.4, 300 mOs) using a Biotek EL405 plate washer. The cells were then loaded with a calcium-sensitive dye (Calcium-5 or Calcium-6, Molecular Devices) and the test compounds at a range of concentrations. Calcium flux following the addition of 15 μM glutamate was monitored using a Molecular Devices FLIPR Tetra.\nThe fluorescence in each well was normalized to the fluorescence of negative and positive control wells. […] The responses to glutamate as functions of the test compound concentrations were fitted to a four-parameter logistic function. The fitted parameter corresponding to the midpoint was taken to be the potency of inhibition of the compound.", "units": {"IC50": "nM"}, "values": [{"smiles": "O=C1CN(c2nccn3c(-c4ccc5c(c4)CC(=O)N5)c(C(=O)Nc4ccccc4)nc23)CCN1", "note": "[Example 143, 3-(2-Oxoindolin-5-yl)-8-(3-oxopiperazin-1-yl)-N-phenyl-imidazo[1,2-a]pyrazine-2-carboxamide]", "IC50": 20}, {"smiles": "CC(C)(C)c1nc2c(N3CCC(=O)CC3)nccn2c1-c1ccc2c(c1)CC(=O)N2", "note": "[Example 220, 5-[2-tert-Butyl-8-(4-oxo-1-piperidyl)imidazo[1,2-a]pyrazin-3-yl]indolin-2-one]", "IC50": 63.1}, {"smiles": "COC1CN(c2nccc3c(-c4ccc5c(c4)CC(=O)N5)c(-c4ccccc4)nn23)C1", "note": "[Example 191, 5-[7-(3-Methoxyazetidin-1-yl)-2-phenyl-pyrazolo[1,5-c]pyrimidin-3-yl]indolin-2-one]", "IC50": 2.51}, {"smiles": "O=C1Cc2cc(-c3c(-c4ccccc4)nc4c(N5CC6CC(C5)O6)nccn34)ccc2N1", "note": "[Example 79, 5-[8-(6-Oxa-3-azabicyclo[3.1.1]heptan-3-yl)-2-phenyl-imidazo[1,2-a]pyrazin-3-yl]indolin-2-one]", "IC50": 0.501}, {"smiles": "O=C(c1ccccc1)c1nc2c(N3CCOCC3)nccn2c1-c1ccc2c(c1)CS(=O)(=O)N2", "note": "[Example 159, [3-(2,2-Dioxo-1,3-dihydro-2,1-benzothiazol-5-yl)-8-morpholino-imidazo[1,2-a]pyrazin-2-yl]-phenyl-methanone]", "IC50": 7.94}, {"smiles": "CC(=O)N1CCN(c2nccn3c(-c4ccc5[nH]c(=O)[nH]c5c4)c(-c4ccc(C#N)cc4)nc23)CC1", "note": "[Example 106, 4-[8-(4-Acetylpiperazin-1-yl)-3-(2-oxo-1,3-dihydrobenzimidazol-5-yl)imidazo[1,2-a]pyrazin-2-yl]benzonitrile]", "IC50": 5.01}, {"smiles": "CN(C)c1nccc2c(-c3ccc4c(c3)CC(=O)N4)c(-c3ccc(F)cc3)nn12", "note": "[Example 169, 5-[7-(Dimethylamino)-2-(4-fluorophenyl)pyrazolo[1,5-c]pyrimidin-3-yl]indolin-2-one]", "IC50": 1.58}, {"smiles": "CC(C)Oc1nccn2c(-c3ccc4c(c3)CC(=O)N4)c(-c3ccc(F)cc3)nc12", "note": "[Example 129, 5-[2-(4-Fluorophenyl)-8-isopropoxy-imidazo[1,2-a]pyrazin-3-yl]indolin-2-one]", "IC50": 20}, {"smiles": "CC(C)(C)OC(=O)N1CCN(c2ncc(Br)n3c(-c4ccc5c(c4)CC(=O)N5)c(Cc4ccccc4)nc23)CC1", "note": "[Example 112, tert-Butyl 4-(2-benzyl-5-bromo-3-(2-oxoindolin-5-yl)imidazo[1,2-a]pyrazin-8-yl)piperazine-1-carboxylate]", "IC50": 0.794}, {"smiles": "CC(=O)N1CCN(c2nccn3c(-c4ccc(O)cc4)c(Cc4ccccc4)nc23)CC1", "note": "[Example 23, 1-[4-[2-Benzyl-3-(4-hydroxyphenyl)imidazo[1,2-a]pyrazin-8-yl]piperazin-1-yl]ethanone]", "IC50": 25.1}, {"smiles": "O=C1Cc2cc(-c3c(-c4ccccc4)nn4c(N5CC(F)C5)nccc34)ccc2N1", "note": "[Example 200, 5-[7-(3-Fluoroazetidin-1-yl)-2-phenyl-pyrazolo[1,5-c]pyrimidin-3-yl]indolin-2-one]", "IC50": 3.16}, {"smiles": "CC(=O)N1CC=C(c2nccn3c(-c4ccc(O)cc4)c(-c4ccc(F)cc4)nc23)CC1", "note": "[Example 130, 1-[4-[2-(4-Fluorophenyl)-3-(4-hydroxyphenyl)imidazo[1,2-a]pyrazin-8-yl]-3,6-dihydro-2H-pyridin-1-yl]ethanone]", "IC50": 158}, {"smiles": "CN1CCN(c2nccn3c(-c4ccc(O)cc4)c(-c4ccc(F)cc4)nc23)CC1", "note": "[Example 6, 4-[2-(4-Fluorophenyl)-8-(4-methylpiperazin-1-yl)imidazo[1,2-a]pyrazin-3-yl]phenol]", "IC50": 501}, {"smiles": "CC1COCCN1c1nccn2c(-c3ccc4c(c3)CC(=O)N4)c(-c3ccc(F)cc3)nc12", "note": "(centres unmarked) [Example 39, 5-[2-(4-Fluorophenyl)-8-(3-methylmorpholin-4-yl)imidazo[1,2-a]pyrazin-3-yl]indolin-2-one]", "IC50": 0.794}, {"smiles": "CS(=O)(=O)c1nccn2c(-c3ccc4c(c3)CC(=O)N4)c(-c3ccc(F)cc3)nc12", "note": "[Example 127, 5-[2-(4-Fluorophenyl)-8-methylsulfonyl-imidazo[1,2-a]pyrazin-3-yl]indolin-2-one]", "IC50": 398}, {"smiles": "CC(=O)N1CCN(c2nccc3c(-c4ccc5c(c4)CC(=O)N5)c(-c4ccc(F)cc4)nn23)CC1", "note": "[Example 172, 5-[7-(4-Acetylpiperazin-1-yl)-2-(4-fluorophenyl)pyrazolo[1,5-c]pyrimidin-3-yl]indolin-2-one]", "IC50": 0.158}, {"smiles": "CC1C(=O)N(C)CCN1c1nccn2c(-c3ccc4c(c3)CC(=O)N4)c(-c3ccc(F)cc3)nc12", "note": "(centres unmarked) [Example 111, 5-(8-(2,4-Dimethyl-3-oxopiperazin-1-yl)-2-(4-fluorophenyl)imidazo[1,2-a]pyrazin-3-yl)indolin-2-one]", "IC50": 1.58}, {"smiles": "O=C1Cc2cc(-c3c(C(=O)c4ccccc4)nc4c(N5CCOCC5)nccn34)ccc2N1", "note": "[Example 153, 5-(2-Benzoyl-8-morpholino-imidazo[1,2-a]pyrazin-3-yl)indolin-2-one]", "IC50": 0.316}, {"smiles": "O=C(c1ccccc1)c1nc2c(N3CCOCC3)nccn2c1-c1ccc(O)cc1", "note": "[Example 151, [3-(4-Hydroxyphenyl)-8-morpholino-imidazo[1,2-a]pyrazin-2-yl]-phenyl-methanone]", "IC50": 12.6}, {"smiles": "O=C(NC1CC1)c1nc2c(N3CCOCC3)nccn2c1-c1ccc2[nH]c(=O)[nH]c2c1", "note": "[Example 146, N-Cyclopropyl-8-morpholino-3-(2-oxo-1,3-dihydrobenzimidazol-5-yl)imidazo[1,2-a]pyrazine-2-carboxamide]", "IC50": 316}, {"smiles": "O=C1Cc2cc(-c3c(-c4ccccc4)nc4c(N5CCOCC5)nccn34)ccc2N1", "note": "[Example 65, 5-(8-Morpholino-2-phenyl-imidazo[1,2-a]pyrazin-3-yl)indolin-2-one]", "IC50": 0.158}, {"smiles": "CC(C)(C)OC(=O)N1CCN(c2nccn3c(-c4ccc5c(c4)CC(=O)N5)c(Cc4ccccc4)nc23)CC1", "note": "[Example 36, tert-Butyl 4-[2-benzyl-3-(2-oxoindolin-5-yl)imidazo[1,2-a]pyrazin-8-yl]piperazine-1-carboxylate]", "IC50": 0.316}, {"smiles": "Oc1ccc(-c2c(Cc3ccccc3)nc3c(N4CCOCC4)nccn23)cc1", "note": "[Example 15, 4-(2-Benzyl-8-morpholino-imidazo[1,2-a]pyrazin-3-yl)phenol]", "IC50": 25.1}, {"smiles": "N#Cc1ccc(-c2nc3c(N4CCOCC4)nccn3c2-c2ccc3[nH]c(=O)[nH]c3c2)cc1", "note": "[Example 105, 4-[8-Morpholino-3-(2-oxo-1,3-dihydrobenzimidazol-5-yl)imidazo[1,2-a]pyrazin-2-yl]benzonitrile]", "IC50": 1.26}, {"smiles": "O=C1Cc2cc(-c3c(-c4ccc(F)cc4)nn4c(N5CCS(=O)(=O)CC5)nccc34)ccc2N1", "note": "[Example 170, 5-[7-(1,1-Dioxo-1,4-thiazinan-4-yl)-2-(4-fluorophenyl)pyrazolo[1,5-c]pyrimidin-3-yl]indolin-2-one]", "IC50": 0.631}, {"smiles": "CC(C)(C)c1nn2cnccc2c1-c1ccc2c(c1)CC(=O)N2", "note": "[Example 165, 5-(2-tert-Butylpyrazolo[1,5-c]pyrimidin-3-yl)indolin-2-one]", "IC50": "> 10000"}, {"smiles": "O=c1[nH]c2ccc(-c3c(Cc4ccccc4)nc4c(N5CCOCC5)nccn34)cc2[nH]1", "note": "[Example 22, 5-(2-Benzyl-8-morpholino-imidazo[1,2-a]pyrazin-3-yl)-1,3-dihydrobenzimidazol-2-one]", "IC50": 1.58}, {"smiles": "CC(C)c1nn2c(N3CCOCC3)ncc(F)c2c1-c1ccc2[nH]ncc2c1", "note": "[Example 236, 4-[4-Fluoro-3-(1H-indazol-5-yl)-2-isopropyl-pyrazolo[1,5-c]pyrimidin-7-yl]morpholine]", "IC50": 158}, {"smiles": "N#CC1CN(c2nccn3c(-c4ccc5c(c4)CC(=O)N5)c(-c4ccc(F)cc4)nc23)C1", "note": "[Example 66, 1-[2-(4-Fluorophenyl)-3-(2-oxoindolin-5-yl)imidazo[1,2-a]pyrazin-8-yl]azetidine-3-carbonitrile]", "IC50": 3.98}, {"smiles": "O=c1[nH]c2ccc(-c3c(-c4ccccc4)nn4c(N5CCOCC5)nccc34)cc2s1", "note": "[Example 242, 6-(7-Morpholino-2-phenyl-pyrazolo[1,5-c]pyrimidin-3-yl)-3H-1,3-benzothiazol-2-one]", "IC50": 0.0501}, {"smiles": "O=C1Cc2cc(-c3c(-c4ccccc4)nn4c(N5CCC(F)CC5)nccc34)ccc2N1", "note": "[Example 188, 5-[7-(4-Fluoro-1-piperidyl)-2-phenyl-pyrazolo[1,5-c]pyrimidin-3-yl]indolin-2-one]", "IC50": 0.501}, {"smiles": "O=C1Cc2cc(-c3c(C4CCCC4)nn4c(N5CCOCC5)nccc34)ccc2N1", "note": "[Example 203, 5-(2-Cyclopentyl-7-morpholino-pyrazolo[1,5-c]pyrimidin-3-yl)indolin-2-one]", "IC50": 63.1}]}]}
